# Source: patent publication US8124610B2, “Sodium channel inhibitors” (Icagen Inc., priority 2007, dated 2012)
# Target: T1, hSCN9A (Homo sapiens, UniProt Q15858)
# T1 construct: expressed in transfected cells
# Experiment: Whole-cell patch-clamp electrophysiology (conventional or PatchXpress), HEK cells expressing hSCN9A, estimated IC-50
# Assay type: cell-based
# Conditions: estimated IC-50, HEK cells expressing hSCN9A; class symbols or bounds; read-out: SCN9A EIC-50
# Method: Human Embryonic Kidney (HEK) cells were transfected with hSCN3A or hSCN9A constructs using lipofectamine reagent (Invitrogen), using standard techniques. Cells stably expressing the hSCN3A or hSCN9A constructs were identified by their resistance to G-418 (400 μg/ml). Clones were screened for expression using the whole-cell voltage-clamp technique. HEK cells stably transfected with hSCN3A or hSCN9A were maintained in DMEM medium supplemented with 10% heat-inactivated fetal bovine serum and 400 μg/ml G418 sulfate in an incubator at 37° C. with a humidified atmosphere of 10% CO2. For HTS, cells were harvested from flasks by trypsinization and replated in an appropriate multi-well plate (typically 96 or 384 wells/plate) such that confluence would be achieved within 24 hours of plating. For electrophysiological studies, cells were removed from the culture flask by brief trypsinization and replated at low density onto glass cover slips. Cells were typically used for electrophysiological experiments within 24 to 72 h after plating. Cover slips containing HEK cells expressing hSCN3A or hSCN9A were placed in a bath on the stage of an inverted microscope and perfused (approximately 1 ml/min) with extracellular solution of the following composition: 138 mM NaCl, 2 mM CaCl2, 5.4 mM KCl, 1 mM MgCl2, 10 mM glucose, and 10 mM HEPES, pH 7.4, with NaOH. […] All recordings were made at room temperature (22-24° C.) using AXOPATCH 200B amplifiers and PCLAMP software (Axon Instruments, Burlingame, Calif.) or PatchXpress 7000 hardware and associated software (Axon Instruments, Burlingame, Calif.). hSCN3A or hSCN9A currents in HEK cells were measured using the whole-cell configuration of the patch-clamp technique (Hamill et al., 1981). […] As a result, voltage errors were negligible and no correction was applied. Current records were acquired at 20 to 50 KHz and filtered at 5 to 10 KHz. HEK cells stably transfected with hSCN3A or hSCN9A were viewed under Hoffman contrast optics and placed in front of an array of flow pipes emitting either control or compound-containing extracellular solutions. All compounds were dissolved in dimethyl sulfoxide to make 10 mM stock solutions, which were then diluted into extracellular solution to attain the final concentrations desired. […] The voltage-dependence of inactivation was determined by applying a series of depolarizing prepulses (8 sec long in 10 mV increments) from a negative holding potential. The voltage was then immediately stepped to 0 mV to assess the magnitude of the sodium current. Currents elicited at 0 mV were plotted as a function of prepulse potential to allow estimation of the voltage midpoint of inactivation (V1/2). Cells were then voltage clamped at the empirically determined V1/2. Compounds were tested for their ability to inhibit hSCN3A or hSCN9A sodium channels by activating the channel with a 20 msec voltage step to 0 mV following an 8 second conditioning prepulse to the empirically determined V1-2 (Table B). Compound effect (% inhibition) was determined by difference in current amplitude before and after application of test compounds. […] In some cases electrophysiological assays were conducted with PatchXpress 7000 hardware and associated software (Molecular Devices Corp) (Table B). All assay buffers and solutions were identical to those used in conventional whole-cell voltage clamp experiments described above. hSCN3A or hSCN9A containing cells were grown as above to 50%-80% confluency and harvested by trypsinization. Trypsinized cells were washed and resuspended in extracellular buffer at a concentration of 1×10^6 cells/ml. The onboard liquid handling facility of the PatchXpress was used for dispensing cells and application of test compounds. Determination of the voltage midpoint of inactivation was as described for conventional whole-cell recordings. Cells were then voltage-clamped to the empirically determined V1/2 and current was activated by a 20 msec voltage step to 0 mV.
# T1 sequence (Q15858 whole entry): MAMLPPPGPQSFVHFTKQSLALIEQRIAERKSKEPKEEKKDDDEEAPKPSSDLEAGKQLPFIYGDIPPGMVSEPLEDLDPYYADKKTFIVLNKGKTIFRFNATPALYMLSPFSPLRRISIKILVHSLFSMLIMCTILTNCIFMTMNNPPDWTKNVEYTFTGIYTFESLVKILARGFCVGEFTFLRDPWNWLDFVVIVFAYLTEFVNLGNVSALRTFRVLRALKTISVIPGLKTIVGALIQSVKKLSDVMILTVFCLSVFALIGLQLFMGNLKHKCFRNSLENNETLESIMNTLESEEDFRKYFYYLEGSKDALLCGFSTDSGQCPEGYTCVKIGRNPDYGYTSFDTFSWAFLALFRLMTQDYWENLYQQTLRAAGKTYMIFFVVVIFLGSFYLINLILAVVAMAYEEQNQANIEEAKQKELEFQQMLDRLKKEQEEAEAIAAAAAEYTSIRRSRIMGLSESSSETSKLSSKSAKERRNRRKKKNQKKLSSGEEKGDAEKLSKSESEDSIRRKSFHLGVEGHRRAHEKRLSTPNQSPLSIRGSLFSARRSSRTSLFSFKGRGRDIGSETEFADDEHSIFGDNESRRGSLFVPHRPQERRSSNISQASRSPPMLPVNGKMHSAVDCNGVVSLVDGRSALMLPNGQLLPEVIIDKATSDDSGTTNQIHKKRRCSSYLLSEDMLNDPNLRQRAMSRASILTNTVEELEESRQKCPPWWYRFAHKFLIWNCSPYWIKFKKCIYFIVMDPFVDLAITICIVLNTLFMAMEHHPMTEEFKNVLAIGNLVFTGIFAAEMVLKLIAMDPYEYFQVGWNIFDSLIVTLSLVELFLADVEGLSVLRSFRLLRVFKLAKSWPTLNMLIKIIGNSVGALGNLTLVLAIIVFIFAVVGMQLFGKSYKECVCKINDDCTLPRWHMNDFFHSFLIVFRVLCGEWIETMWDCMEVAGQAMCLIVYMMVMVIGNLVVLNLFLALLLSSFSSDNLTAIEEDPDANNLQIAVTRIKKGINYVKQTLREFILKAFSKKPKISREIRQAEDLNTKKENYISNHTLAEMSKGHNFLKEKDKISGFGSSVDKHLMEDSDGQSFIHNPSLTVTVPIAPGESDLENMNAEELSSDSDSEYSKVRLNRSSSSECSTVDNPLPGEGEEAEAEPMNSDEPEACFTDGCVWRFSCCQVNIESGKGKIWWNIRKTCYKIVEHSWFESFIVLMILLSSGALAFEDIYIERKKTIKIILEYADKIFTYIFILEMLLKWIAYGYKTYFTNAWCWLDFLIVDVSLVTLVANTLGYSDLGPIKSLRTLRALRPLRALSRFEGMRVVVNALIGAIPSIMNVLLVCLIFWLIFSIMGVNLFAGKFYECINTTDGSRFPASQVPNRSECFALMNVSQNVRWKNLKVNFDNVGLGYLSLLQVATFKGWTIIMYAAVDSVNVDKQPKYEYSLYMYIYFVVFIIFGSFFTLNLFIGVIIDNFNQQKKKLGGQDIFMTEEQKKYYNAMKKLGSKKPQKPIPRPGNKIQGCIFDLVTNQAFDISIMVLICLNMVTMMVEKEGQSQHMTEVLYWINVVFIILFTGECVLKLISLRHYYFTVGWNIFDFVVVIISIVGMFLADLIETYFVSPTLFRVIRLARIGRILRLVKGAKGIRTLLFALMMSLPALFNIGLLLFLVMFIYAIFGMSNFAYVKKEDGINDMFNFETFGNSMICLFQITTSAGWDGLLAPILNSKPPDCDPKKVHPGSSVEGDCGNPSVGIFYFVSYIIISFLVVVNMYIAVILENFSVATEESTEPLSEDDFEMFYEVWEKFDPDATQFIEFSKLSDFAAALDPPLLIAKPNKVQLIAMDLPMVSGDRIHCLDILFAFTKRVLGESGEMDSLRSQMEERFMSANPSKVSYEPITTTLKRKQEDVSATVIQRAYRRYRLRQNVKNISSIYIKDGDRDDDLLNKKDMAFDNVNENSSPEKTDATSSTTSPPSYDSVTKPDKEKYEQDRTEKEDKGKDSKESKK
row,IC50 [µM],Compound
1,< 2,"Cc1cc(Nc2ccc(S(=O)(=O)Nc3nccs3)c(F)c2)n(-c2ccc(F)cc2)n1 [Compound 178, 2-fluoro-4-(1-(4-fluorophenyl)-3-methyl-1H-pyrazol-5-ylamino)-N-(thiazol-2-yl)benzenesulfonamide]"
2,2 to 10,"N#Cc1cn(-c2ccccc2)nc1Nc1ccc(S(=O)(=O)Nc2nccs2)c(F)c1 [Compound 180, 4-(4-cyano-1-phenyl-1H-pyrazol-3-ylamino)-2-fluoro-N-(thiazol-2-yl)benzenesulfonamide]"
3,< 2,"Cc1cc(Nc2ccc(S(=O)(=O)Nc3nccs3)c(F)c2)n(-c2cccc(C(F)(F)F)c2)n1 [Compound 181, 2-fluoro-4-(3-methyl-1-(3-(trifluoromethyl)phenyl)-1H-pyrazol-5-ylamino)-N-(thiazol-2-yl)benzenesulfonamide]"
4,< 2,"Cc1cc(Nc2ccc(S(=O)(=O)Nc3nccs3)c(F)c2)n(-c2cc(F)ccc2C)n1 [Compound 186, 2-fluoro-4-(1-(5-fluoro-2-methylphenyl)-3-methyl-1H-pyrazol-5-ylamino)-N-(thiazol-2-yl)benzenesulfonamide]"
5,< 2,"Cc1cc(Nc2ccc(S(=O)(=O)Nc3nccs3)c(F)c2)n(-c2c(F)cccc2F)n1 [Compound 190, 4-(1-(2,6-difluorophenyl)-3-methyl-1H-pyrazol-5-ylamino)-2-fluoro-N-(thiazol-2-yl)benzenesulfonamide]"
6,2 to 10,"Cc1cc(Nc2ccc(S(=O)(=O)Nc3nccs3)c(F)c2)n(C(C)(C)C)n1 [Compound 192, 4-(1-tert-butyl-3-methyl-1H-pyrazol-5-ylamino)-2-fluoro-N-(thiazol-2-yl)benzenesulfonamide]"
7,< 2,"CC(C)(C)n1nc(Cc2cccc(Cl)c2)cc1Nc1ccc(S(=O)(=O)Nc2nccs2)cc1F [Compound 195, 4-(1-tert-butyl-3-(3-chlorobenzyl)-1H-pyrazol-5-ylamino)-3-fluoro-N-(thiazol-2-yl)benzenesulfonamide]"
8,< 2,"Cn1nc(Cc2ccc(Cl)c(F)c2)cc1Nc1ccc(S(=O)(=O)Nc2nccs2)cc1 [Compound 196, 4-(3-(4-chloro-3-fluorobenzyl)-1-methyl-1H-pyrazol-5-ylamino)-N-(thiazol-2-yl)benzenesulfonamide]"
9,< 2,"O=S(=O)(Nc1nccs1)c1ccc(Nc2ncn(Cc3cccc(C(F)(F)F)c3)n2)c(F)c1 [Compound 200, 3-fluoro-N-(thiazol-2-yl)-4-(1-(3-(trifluoromethyl)benzyl)-1H-1,2,4-triazol-3-ylamino)benzenesulfonamide]"
10,< 2,"Cc1cc(Nc2ccc(S(=O)(=O)Nc3nccs3)cc2F)n(-c2ccccc2F)n1 [Compound 203, 3-fluoro-4-(1-(2-fluorophenyl)-3-methyl-1H-pyrazol-5-ylamino)-N-(thiazol-2-yl)benzenesulfonamide]"
11,< 2,"Cn1nc(Cc2ccc(Cl)c(F)c2)cc1Nc1ccc(S(=O)(=O)Nc2nccs2)c(F)c1 [Compound 210, 4-(3-(4-chloro-3-fluorobenzyl)-1-methyl-1H-pyrazol-5-ylamino)-2-fluoro-N-(thiazol-2-yl)benzenesulfonamide]"
12,2 to 10,"O=S(=O)(Nc1nccs1)c1ccc(Nc2ccn(Cc3ccccc3)n2)cc1F [Compound 211, 4-(1-benzyl-1H-pyrazol-3-ylamino)-2-fluoro-N-(thiazol-2-yl)benzenesulfonamide]"
13,< 2,"COc1ccccc1-n1nc(C(C)(C)C)cc1Nc1ccc(S(=O)(=O)Nc2nccs2)c(F)c1 [Compound 214, 4-(3-tert-butyl-1-(2-methoxyphenyl)-1H-pyrazol-5-ylamino)-2-fluoro-N-(thiazol-2-yl)benzenesulfonamide]"

# Continued, compound first:
row,Compound,IC50 [µM]
1,"Cc1cccc(-n2nc(C)cc2Nc2ccc(S(=O)(=O)Nc3nccs3)c(F)c2)c1 [Compound 176, 2-fluoro-4-(3-methyl-1-m-tolyl-1H-pyrazol-5-ylamino)-N-(thiazol-2-yl)benzenesulfonamide]",< 2
2,"Cc1cc(Nc2ccc(S(=O)(=O)Nc3nccs3)c(F)c2)n(-c2cccc(F)c2)n1 [Compound 177, 2-fluoro-4-(1-(3-fluorophenyl)-3-methyl-1H-pyrazol-5-ylamino)-N-(thiazol-2-yl)benzenesulfonamide]",< 2
3,"Cc1cc(Nc2ccc(S(=O)(=O)Nc3nccs3)c(F)c2)n(-c2ccccc2C(F)(F)F)n1 [Compound 179, 2-fluoro-4-(3-methyl-1-(2-(trifluoromethyl)phenyl)-1H-pyrazol-5-ylamino)-N-(thiazol-2-yl)benzenesulfonamide]",< 2
4,"Cc1cc(Nc2ccc(S(=O)(=O)Nc3nccs3)c(F)c2)n(-c2ccc(F)cc2C(F)(F)F)n1 [Compound 187, 2-fluoro-4-(1-(4-fluoro-2-(trifluoromethyl)phenyl)-3-methyl-1H-pyrazol-5-ylamino)-N-(thiazol-2-yl)benzenesulfonamide]",< 2
5,"Cc1cc(Nc2ccc(S(=O)(=O)Nc3nccs3)c(F)c2)n(-c2c(Cl)cccc2Cl)n1 [Compound 189, 4-(1-(2,6-dichlorophenyl)-3-methyl-1H-pyrazol-5-ylamino)-2-fluoro-N-(thiazol-2-yl)benzenesulfonamide]",< 2
6,"CC(C)(C)n1nc(Cc2cccc(Cl)c2)cc1Nc1ccc(S(=O)(=O)Nc2nccs2)cc1 [Compound 194, 4-(1-tert-butyl-3-(3-chlorobenzyl)-1H-pyrazol-5-ylamino)-N-(thiazol-2-yl)benzenesulfonamide]",2 to 10
7,"O=S(=O)(Nc1nccs1)c1ccc(Nc2ccn(Cc3ccc(Cl)cc3F)n2)cc1F [Compound 197, 4-(1-(4-chloro-2-fluorobenzyl)-1H-pyrazol-3-ylamino)-2-fluoro-N-(thiazol-2-yl)benzenesulfonamide]",< 2
8,"O=S(=O)(Nc1nccs1)c1ccc(Nc2ncn(Cc3ccc(Cl)cc3)n2)c(F)c1 [Compound 199, 4-(1-(4-chlorobenzyl)-1H-1,2,4-triazol-3-ylamino)-3-fluoro-N-(thiazol-2-yl)benzenesulfonamide]",< 2
9,"Cc1cc(Nc2ccc(S(=O)(=O)Nc3nccs3)c(F)c2)n(C2CCN(C)CC2)n1 [Compound 202, 2-fluoro-4-(3-methyl-1-(1-methylpiperidin-4-yl)-1H-pyrazol-5-ylamino)-N-(thiazol-2-yl)benzenesulfonamide]",2 to 10
10,"O=S(=O)(Nc1nccs1)c1ccc(Nc2ncn(Cc3ccc(F)cc3Cl)n2)c(F)c1 [Compound 207, 4-(1-(2-chloro-4-fluorobenzyl)-1H-1,2,4-triazol-3-ylamino)-3-fluoro-N-(thiazol-2-yl)benzenesulfonamide]",< 2
11,"O=S(=O)(Nc1nccs1)c1ccc(Nc2ncn(Cc3ccccc3Cl)n2)c(F)c1 [Compound 208, 4-(1-(2-chlorobenzyl)-1H-1,2,4-triazol-3-ylamino)-3-fluoro-N-(thiazol-2-yl)benzenesulfonamide]",< 2
12,"Cn1nc(Cc2ccc(Cl)c(F)c2)cc1Nc1ccc(S(=O)(=O)Nc2nccs2)cc1F [Compound 209, 4-(3-(4-chloro-3-fluorobenzyl)-1-methyl-1H-pyrazol-5-ylamino)-3-fluoro-N-(thiazol-2-yl)benzenesulfonamide]",< 2
13,"O=S(=O)(Nc1nccs1)c1ccc(Nc2ccn(Cc3ccc(Cl)cc3)n2)cc1C(F)(F)F [Compound 212, 4-(1-(4-chlorobenzyl)-1H-pyrazol-3-ylamino)-N-(thiazol-2-yl)-2-(trifluoromethyl)benzenesulfonamide]",2 to 10
14,"CN(C)C(=O)Cc1cc(Nc2ccc(S(=O)(=O)Nc3nccs3)c(F)c2)n(-c2ccccc2)n1 [Compound 213, 2-(5-(3-fluoro-4-(N-thiazol-2-ylsulfamoyl)phenylamino)-1-phenyl-1H-pyrazol-3-yl)-N,N-dimethylethanamide]",2 to 10
